Measurements reported in patent US20140037574A1, “PHARMACEUTICAL COMPOSITION” (priority 2010, published 2014).

Biological target: CYP3A4 (Homo sapiens, UniProt P08684)
Experiment: in vitro
Conditions: for inhibition at 10 min: human, microsomes, pH 7.4; for IC50: HLM, felodipine at its Km as substrate
Experimental: G6PDH (40 U/mL) was prepared in 5 mM sodium citrate solution and stored at −20° C. until use. […] The preparation of NRS was completed right before use. It was made such that on addition to the HLM incubation mixture, it contained 2.6 mM NADP', 6.7 mM G6P, […] and 0.8 U/ml G6PDH.
Substrate (felodipine) solutions were prepared over a range of 0.01-100.0 mM in acetonitrile. […] This was kept on ice until use.
The reaction was halted by a stop solution made of cooled acetonitrile (−20° C.).
Supernatants were filtered through […] and analysed by the UPLC method developed in order to quantify the extent of felodipine metabolism. The rate of metabolism, determined as the rate of disappearance of substrate, was profiled against the substrate concentration to determine the enzyme kinetic parameters.
Felodipine at its determined Km was incubated in HLM as described above except for the addition of inhibitors. […] Supernatants were analysed using the developed UPLC method. […] Another control was incubated without inhibitors to allow for maximum metabolism. […] At higher concentrations, the effect of acetonitrile on enzymatic activity could be significant. It is therefore recommended that not >1% acetonitrile should be included in the incubation mixture. […] The final concentration of acetonitrile in the incubation mixture was 1%.
Their inhibitory effects were investigated on microsomal metabolism of felodipine. The potencies of the inhibitors were measured as their IC50 values determined through non-linear regression of the percentage inhibition of felodipine metabolism against inhibitor concentration. […] The concentration of felodipine in incubation mixtures containing the various inhibitors and the modelled pre-systemic enzymatic modulators was determined and the extent of metabolism was measured as percentage of control.

CYP3A4, sequence (P08684 whole entry): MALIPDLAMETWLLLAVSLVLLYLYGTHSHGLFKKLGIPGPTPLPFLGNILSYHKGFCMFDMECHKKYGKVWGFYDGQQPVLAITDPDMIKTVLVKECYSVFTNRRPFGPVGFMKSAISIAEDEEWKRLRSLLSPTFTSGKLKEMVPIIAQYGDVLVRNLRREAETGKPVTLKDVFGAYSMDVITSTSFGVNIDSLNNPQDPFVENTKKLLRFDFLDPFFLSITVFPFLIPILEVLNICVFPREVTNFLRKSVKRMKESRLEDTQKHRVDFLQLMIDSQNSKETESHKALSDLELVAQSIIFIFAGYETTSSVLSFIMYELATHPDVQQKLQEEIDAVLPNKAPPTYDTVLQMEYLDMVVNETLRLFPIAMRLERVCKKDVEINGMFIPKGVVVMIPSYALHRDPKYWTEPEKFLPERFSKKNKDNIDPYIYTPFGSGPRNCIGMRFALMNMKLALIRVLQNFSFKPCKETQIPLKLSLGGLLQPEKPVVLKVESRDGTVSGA

| inhibition at 10 min | IC50 (IC50 (mg/mL)) | IC50 (IC50 (μM), Table 1) | Structure (SMILES) |
| --- | --- | --- | --- |
| 98% | – | – | O=c1c(O)c(-c2ccc(O)c(O)c2)oc2cc(O)cc(O)c12 [Quercetin, quercetin] |
| 98% | 178 µM | 178 µM | C[C@@H]1O[C@@H](O[C@H]2[C@H](Oc3cc(O)c4c(c3)O[C@H](c3ccc(O)cc3)CC4=O)O[C@H](CO)[C@@H](O)[C@@H]2O)[C@H](O)[C@H](O)[C@H]1O [Naringin, naringin] |
| 95% | – | – | O=C1C[C@@H](c2ccc(O)cc2)Oc2cc(O)cc(O)c21 [Naringenin, naringenin] |
